Measured values: ChEMBL document CHEMBL1201862, “PubChem BioAssay data set” (2004)
Calls of active or inactive are those of the source.

Legend:
Format in all cases: functional
[1] = target: Dual specificity protein kinase CLK2 (Homo sapiens, UniProt P49760)
[2] = target: Tyrosine-protein kinase Lck (Homo sapiens, UniProt P06239);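 further: lck was assayed as one member of a kinase panel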
[3] = target: Mitogen-activated protein kinase 9 (Homo sapiens, UniProt P45984);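 further: value from a kinome panel profiling assay, MAPK9 panel entry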
LIM domain kinase 1 = LIM domain kinase 1 (Homo sapiens, UniProt P53667); experiment: Navigating the Kinome. Panel member name: LIMK1
[4] = target: T1, Mitogen-activated protein kinase kinase kinase kinase 2 (Homo sapiens, UniProt Q12851);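 further: measured as one member of a kinome-wide kinase panel, with MAP4K2 as the panel entry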
T1 sequence (Q12851 whole entry): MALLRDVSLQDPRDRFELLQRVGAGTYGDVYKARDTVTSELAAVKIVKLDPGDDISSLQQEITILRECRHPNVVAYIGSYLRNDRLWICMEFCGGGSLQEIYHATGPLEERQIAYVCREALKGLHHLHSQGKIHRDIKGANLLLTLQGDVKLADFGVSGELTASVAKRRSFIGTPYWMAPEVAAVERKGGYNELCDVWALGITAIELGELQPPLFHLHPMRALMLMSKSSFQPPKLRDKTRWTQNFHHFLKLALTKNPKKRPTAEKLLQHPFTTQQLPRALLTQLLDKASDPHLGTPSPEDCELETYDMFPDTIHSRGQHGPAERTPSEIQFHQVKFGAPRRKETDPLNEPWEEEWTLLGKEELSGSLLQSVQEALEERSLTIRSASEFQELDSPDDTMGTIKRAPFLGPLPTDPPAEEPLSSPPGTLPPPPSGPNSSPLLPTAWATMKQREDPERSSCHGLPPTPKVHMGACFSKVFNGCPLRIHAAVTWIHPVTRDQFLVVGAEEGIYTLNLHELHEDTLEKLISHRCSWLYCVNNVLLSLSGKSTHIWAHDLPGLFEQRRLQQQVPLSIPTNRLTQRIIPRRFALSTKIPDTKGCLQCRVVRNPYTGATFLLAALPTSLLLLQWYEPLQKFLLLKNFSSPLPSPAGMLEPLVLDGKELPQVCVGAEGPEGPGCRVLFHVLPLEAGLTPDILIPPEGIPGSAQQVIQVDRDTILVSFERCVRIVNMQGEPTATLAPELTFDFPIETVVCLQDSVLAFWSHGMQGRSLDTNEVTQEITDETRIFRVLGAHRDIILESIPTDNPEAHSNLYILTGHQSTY

[5] = target: Platelet-derived growth factor receptor beta (Homo sapiens, UniProt P09619);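 further: value comes from a kinome panel, with PDGFRB tested as one panel member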
[6] = target: T2, Receptor-type tyrosine-protein kinase FLT3 (Homo sapiens, UniProt P36888);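 further: FLT3 was tested as one member of a kinome-wide kinase panel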
T2 sequence (P36888 whole entry): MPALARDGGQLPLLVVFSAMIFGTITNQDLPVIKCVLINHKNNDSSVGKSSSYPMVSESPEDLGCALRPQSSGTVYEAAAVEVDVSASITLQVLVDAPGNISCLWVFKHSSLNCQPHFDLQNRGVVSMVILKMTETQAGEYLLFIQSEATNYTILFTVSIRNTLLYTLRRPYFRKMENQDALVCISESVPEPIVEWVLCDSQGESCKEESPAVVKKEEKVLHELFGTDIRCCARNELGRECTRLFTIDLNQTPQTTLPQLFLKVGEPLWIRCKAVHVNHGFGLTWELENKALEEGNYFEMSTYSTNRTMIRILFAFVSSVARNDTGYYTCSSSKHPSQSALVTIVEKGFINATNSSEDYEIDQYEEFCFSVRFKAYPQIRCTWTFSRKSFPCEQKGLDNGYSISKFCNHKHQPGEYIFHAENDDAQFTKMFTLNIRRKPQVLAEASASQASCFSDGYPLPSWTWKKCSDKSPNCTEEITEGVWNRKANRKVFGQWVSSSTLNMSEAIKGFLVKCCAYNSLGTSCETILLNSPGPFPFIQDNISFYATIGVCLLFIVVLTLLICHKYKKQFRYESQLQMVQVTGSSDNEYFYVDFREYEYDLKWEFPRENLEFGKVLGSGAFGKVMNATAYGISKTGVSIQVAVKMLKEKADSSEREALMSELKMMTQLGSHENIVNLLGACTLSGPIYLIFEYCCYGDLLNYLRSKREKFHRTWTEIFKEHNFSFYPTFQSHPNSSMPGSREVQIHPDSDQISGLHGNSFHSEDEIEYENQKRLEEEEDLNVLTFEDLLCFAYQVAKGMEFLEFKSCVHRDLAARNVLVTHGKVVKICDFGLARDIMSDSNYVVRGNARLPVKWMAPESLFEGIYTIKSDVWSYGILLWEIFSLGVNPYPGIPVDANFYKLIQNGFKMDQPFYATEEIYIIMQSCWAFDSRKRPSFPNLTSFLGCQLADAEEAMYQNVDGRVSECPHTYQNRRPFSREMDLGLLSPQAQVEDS

[7] = target: Serine/threonine-protein kinase Chk1 (Homo sapiens, UniProt O14757);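 further: measured as one member of a kinome-wide kinase profiling panel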
[8] = target: Tyrosine-protein kinase ABL1 (Homo sapiens, UniProt P00519)
[9] = target: Cyclin-dependent kinase 5 (Homo sapiens, UniProt Q00535);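 further: CDK5 measured as one member of a kinase profiling panel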
Aurora kinase B = Aurora kinase B (Homo sapiens, UniProt Q96GD4)
[10] = target: T3, Serine/threonine-protein kinase Nek2 (Homo sapiens, UniProt P51955)
T3 sequence (P51955 whole entry): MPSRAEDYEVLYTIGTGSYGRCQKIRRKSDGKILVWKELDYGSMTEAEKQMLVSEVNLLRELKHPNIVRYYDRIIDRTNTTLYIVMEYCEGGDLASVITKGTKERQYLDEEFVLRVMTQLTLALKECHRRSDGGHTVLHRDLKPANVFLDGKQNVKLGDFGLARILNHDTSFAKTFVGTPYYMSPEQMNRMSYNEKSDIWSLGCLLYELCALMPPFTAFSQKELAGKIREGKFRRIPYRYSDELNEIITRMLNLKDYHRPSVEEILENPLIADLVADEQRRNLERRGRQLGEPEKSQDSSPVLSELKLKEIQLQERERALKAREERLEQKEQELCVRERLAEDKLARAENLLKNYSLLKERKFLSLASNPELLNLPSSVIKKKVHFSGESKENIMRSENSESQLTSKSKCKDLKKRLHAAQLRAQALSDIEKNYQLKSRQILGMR

[11] = target: Mitogen-activated protein kinase 14 (Homo sapiens, UniProt Q16539);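 further: part of a kinome-wide panel, MAPK14 entry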
[12] = target: Casein kinase I isoform alpha (Homo sapiens, UniProt P48729)
[13] = target: Maternal embryonic leucine zipper kinase (Homo sapiens, UniProt Q14680)
[14] = target: Serine/threonine-protein kinase 3 (Homo sapiens, UniProt Q13188);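 further: measured as one member of a kinome-wide kinase panel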
Chain of Serine/threonine-protein kinase 3 (Q13188 whole entry): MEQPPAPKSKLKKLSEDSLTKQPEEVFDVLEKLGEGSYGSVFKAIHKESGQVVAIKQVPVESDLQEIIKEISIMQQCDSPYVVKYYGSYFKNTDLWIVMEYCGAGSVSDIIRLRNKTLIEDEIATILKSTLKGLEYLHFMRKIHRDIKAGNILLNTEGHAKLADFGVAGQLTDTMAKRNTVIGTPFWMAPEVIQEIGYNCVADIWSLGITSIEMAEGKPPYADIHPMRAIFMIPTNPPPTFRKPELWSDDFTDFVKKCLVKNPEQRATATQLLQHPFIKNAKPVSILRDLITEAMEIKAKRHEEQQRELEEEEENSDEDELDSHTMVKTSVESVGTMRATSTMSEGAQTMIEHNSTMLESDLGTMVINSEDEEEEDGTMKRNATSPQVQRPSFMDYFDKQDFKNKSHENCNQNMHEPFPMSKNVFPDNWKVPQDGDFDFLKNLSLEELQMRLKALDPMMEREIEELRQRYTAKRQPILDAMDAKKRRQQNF

Chain of Cyclin-dependent kinase 5 (Q00535 whole entry): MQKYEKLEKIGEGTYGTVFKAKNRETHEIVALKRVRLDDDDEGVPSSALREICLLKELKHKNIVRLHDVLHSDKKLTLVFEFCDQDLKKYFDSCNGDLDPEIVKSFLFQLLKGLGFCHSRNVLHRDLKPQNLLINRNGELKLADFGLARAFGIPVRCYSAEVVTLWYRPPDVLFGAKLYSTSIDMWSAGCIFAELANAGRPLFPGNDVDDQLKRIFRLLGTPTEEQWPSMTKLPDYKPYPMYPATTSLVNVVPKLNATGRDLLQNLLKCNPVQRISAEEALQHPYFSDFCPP
Chain of Dual specificity protein kinase CLK2 (P49760 whole entry): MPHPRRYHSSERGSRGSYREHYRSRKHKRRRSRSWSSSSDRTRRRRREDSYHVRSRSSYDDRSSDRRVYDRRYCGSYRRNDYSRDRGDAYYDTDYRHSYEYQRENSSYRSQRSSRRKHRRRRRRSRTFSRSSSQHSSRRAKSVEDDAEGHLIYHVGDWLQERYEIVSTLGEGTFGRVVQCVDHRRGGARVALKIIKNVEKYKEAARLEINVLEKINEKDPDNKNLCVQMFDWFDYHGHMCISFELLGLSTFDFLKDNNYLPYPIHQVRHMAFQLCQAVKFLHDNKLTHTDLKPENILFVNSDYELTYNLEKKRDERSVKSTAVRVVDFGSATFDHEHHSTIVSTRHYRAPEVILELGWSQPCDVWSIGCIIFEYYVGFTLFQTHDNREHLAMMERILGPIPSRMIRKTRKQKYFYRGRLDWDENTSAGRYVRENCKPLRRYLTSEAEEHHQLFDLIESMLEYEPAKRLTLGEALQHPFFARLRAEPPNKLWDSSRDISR
Chain of Tyrosine-protein kinase Lck (P06239 whole entry): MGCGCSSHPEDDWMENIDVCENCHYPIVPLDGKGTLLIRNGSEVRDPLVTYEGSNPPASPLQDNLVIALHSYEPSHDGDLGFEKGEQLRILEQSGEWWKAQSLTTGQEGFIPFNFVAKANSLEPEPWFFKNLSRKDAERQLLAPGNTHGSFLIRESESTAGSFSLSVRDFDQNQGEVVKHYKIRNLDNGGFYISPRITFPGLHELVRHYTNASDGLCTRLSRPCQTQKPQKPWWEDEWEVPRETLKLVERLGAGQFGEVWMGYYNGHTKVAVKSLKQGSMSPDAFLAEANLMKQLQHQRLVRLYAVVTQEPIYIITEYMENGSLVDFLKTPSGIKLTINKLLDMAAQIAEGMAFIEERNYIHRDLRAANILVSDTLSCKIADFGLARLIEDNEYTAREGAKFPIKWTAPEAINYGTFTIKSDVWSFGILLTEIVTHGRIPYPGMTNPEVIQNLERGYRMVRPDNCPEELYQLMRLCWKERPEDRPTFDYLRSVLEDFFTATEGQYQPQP
Chain of Mitogen-activated protein kinase 9 (P45984 whole entry, the tested form may be a part): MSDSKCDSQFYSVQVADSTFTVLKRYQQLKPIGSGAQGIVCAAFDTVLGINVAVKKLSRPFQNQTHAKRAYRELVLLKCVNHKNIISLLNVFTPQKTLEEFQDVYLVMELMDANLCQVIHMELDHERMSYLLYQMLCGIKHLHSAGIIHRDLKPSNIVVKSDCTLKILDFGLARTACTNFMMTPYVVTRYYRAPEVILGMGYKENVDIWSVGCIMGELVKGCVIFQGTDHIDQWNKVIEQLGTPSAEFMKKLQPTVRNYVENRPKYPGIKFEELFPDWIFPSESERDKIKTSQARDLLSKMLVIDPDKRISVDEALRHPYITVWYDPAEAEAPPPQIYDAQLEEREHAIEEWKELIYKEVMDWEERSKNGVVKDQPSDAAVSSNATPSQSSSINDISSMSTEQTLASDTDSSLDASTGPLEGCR
Chain of Aurora kinase B (Q96GD4 whole entry): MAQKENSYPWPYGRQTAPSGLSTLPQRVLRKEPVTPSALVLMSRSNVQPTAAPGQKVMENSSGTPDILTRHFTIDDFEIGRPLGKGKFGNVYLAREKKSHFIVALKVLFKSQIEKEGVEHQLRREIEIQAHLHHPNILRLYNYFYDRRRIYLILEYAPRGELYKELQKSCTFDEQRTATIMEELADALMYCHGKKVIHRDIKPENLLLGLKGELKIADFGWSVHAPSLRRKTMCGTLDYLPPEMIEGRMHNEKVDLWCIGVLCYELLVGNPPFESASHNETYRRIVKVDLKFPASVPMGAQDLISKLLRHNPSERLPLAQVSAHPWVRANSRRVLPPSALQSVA
Chain of Platelet-derived growth factor receptor beta (P09619 whole entry): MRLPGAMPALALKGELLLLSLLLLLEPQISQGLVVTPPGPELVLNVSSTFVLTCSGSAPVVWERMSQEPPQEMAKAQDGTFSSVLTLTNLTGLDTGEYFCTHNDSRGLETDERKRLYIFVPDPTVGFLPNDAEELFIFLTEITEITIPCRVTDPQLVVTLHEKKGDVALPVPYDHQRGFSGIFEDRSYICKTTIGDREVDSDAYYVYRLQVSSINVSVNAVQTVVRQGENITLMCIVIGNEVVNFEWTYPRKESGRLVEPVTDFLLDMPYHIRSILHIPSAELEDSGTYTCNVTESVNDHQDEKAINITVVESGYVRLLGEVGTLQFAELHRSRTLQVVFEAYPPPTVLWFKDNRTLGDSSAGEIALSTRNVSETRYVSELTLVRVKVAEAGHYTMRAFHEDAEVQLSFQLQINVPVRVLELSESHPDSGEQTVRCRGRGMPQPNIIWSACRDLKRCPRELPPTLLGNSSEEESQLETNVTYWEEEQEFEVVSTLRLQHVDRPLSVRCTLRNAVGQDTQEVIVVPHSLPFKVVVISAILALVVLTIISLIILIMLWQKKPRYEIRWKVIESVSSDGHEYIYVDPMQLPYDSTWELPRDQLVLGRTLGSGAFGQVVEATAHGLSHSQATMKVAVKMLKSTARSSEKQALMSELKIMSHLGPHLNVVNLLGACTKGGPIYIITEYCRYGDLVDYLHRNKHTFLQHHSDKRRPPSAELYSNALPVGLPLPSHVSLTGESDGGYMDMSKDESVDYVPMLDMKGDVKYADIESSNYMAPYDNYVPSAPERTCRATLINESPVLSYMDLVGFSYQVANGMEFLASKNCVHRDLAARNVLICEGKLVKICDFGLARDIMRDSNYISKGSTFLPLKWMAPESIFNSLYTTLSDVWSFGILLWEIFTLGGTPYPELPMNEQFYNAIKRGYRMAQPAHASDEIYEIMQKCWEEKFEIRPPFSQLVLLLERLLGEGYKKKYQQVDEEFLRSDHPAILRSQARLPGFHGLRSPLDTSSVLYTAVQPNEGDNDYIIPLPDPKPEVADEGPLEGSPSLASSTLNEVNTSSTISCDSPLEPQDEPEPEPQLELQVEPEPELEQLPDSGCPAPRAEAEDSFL
Chain of LIM domain kinase 1 (P53667 whole entry, the tested form may be a part): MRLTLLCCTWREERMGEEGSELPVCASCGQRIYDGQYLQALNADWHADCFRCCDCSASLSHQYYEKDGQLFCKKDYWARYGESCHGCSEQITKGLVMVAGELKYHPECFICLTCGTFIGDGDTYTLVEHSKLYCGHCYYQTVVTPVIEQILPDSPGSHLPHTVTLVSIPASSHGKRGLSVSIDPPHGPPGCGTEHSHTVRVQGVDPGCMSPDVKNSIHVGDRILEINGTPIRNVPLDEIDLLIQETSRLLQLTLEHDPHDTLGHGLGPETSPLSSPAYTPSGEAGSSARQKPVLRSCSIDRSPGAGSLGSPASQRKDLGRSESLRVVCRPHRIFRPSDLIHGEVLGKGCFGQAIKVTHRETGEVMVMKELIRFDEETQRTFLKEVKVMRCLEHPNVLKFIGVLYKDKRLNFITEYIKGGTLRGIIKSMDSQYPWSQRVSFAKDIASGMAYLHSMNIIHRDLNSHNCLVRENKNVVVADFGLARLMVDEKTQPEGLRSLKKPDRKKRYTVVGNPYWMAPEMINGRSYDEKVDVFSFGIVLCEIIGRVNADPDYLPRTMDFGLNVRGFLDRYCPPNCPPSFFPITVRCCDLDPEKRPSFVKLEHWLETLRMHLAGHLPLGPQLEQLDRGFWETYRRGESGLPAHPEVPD
Chain of Serine/threonine-protein kinase Chk1 (O14757 whole entry): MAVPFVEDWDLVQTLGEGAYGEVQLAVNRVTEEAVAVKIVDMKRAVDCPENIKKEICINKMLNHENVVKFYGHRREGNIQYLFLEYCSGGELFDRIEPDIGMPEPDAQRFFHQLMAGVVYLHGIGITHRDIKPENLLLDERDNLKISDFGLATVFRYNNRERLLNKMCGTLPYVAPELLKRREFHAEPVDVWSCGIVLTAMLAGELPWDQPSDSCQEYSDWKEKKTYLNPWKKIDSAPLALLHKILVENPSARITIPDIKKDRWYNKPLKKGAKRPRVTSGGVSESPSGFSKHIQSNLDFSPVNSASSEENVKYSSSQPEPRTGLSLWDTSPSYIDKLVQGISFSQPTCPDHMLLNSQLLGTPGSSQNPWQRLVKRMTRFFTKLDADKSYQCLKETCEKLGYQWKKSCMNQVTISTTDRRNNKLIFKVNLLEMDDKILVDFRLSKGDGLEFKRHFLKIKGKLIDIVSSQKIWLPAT

Ki [1]	Ki [2]	Ki [3]	Ki (LIM domain kinase 1)	Ki [4]	Ki [5]	Ki [6]	Ki [7]	Ki [8]	Ki [9]	Ki (Aurora kinase B)	Ki [10]	Ki [11]	Ki [12]	Ki [13]	Ki [14]	SMILES
> 3.98 µM (inactive)	> 6.31 µM (inactive)	> 3.98 µM (inactive)	> 3.16 µM (inactive)	> 2.51 µM (inactive)	> 2 µM (inactive)	> 3.16 µM (inactive)	> 3.16 µM (inactive)	> 2.51 µM (inactive)	> 3.16 µM (inactive)	> 3.98 µM (inactive)	> 3.16 µM (inactive)	> 3.98 µM (inactive)				COc1cccc(C(C)NC(=O)c2sc(-c3ccncc3)nc2C)c1 (stereo unspecified)
1.58 µM (active)		> 3.98 µM (inactive)		> 2.51 µM (inactive)		> 2.51 µM (inactive)			1 µM (active)			> 3.98 µM (inactive)	0.794 µM (active)	> 2 µM (inactive)	> 3.16 µM (inactive)	CCCCC(=O)Nc1cc(-c2c[nH]c3ncccc23)cc(Cl)n1
> 3.98 µM (inactive)	> 5.01 µM (inactive)		> 3.16 µM (inactive)	> 2.51 µM (inactive)	> 2 µM (inactive)	> 2.51 µM (inactive)	> 3.16 µM (inactive)	> 2.51 µM (inactive)	> 3.16 µM (inactive)	> 3.98 µM (inactive)	> 3.16 µM (inactive)		1 µM (active)	> 2 µM (inactive)	> 2.51 µM (inactive)	Oc1ccc(-c2nc(-c3ccncc3)c(-c3ccc(F)cc3)[nH]2)cc1 [SB-202190]
